Data taken from patent US7799821B2, “Therapeutic compounds” (Allergan, Inc., priority 2004, dated 2010).

biological target: T1, hEP2/Gqs5 (Homo sapiens, UniProt P43116); experiment: FLIPR calcium signal, hEP2; assay type: cell-based; settings: FLIPR Ca2+ signal, HEK-293(EBNA); read-out: FUNCTIONAL EC50 HEP2
T1 construct: expressed in transfected cells; host or cells: HEK-293(EBNA)
How it was run: (§1)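 HEK-293(EBNA) cells stably expressing each human prostanoid receptor (EP2 and EP3A coupled via Gqs5/Gqi5 chimeras) were loaded with Fluo-4 AM, and peak calcium fluorescence was measured on FLIPR at 37° C. Compounds were tested at 10^−5 M or from 10^−11 to 10^−5 M in duplicate, n≥3, with response expressed relative to buffer and standard agonist controls.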

T1 sequence (P43116 whole entry): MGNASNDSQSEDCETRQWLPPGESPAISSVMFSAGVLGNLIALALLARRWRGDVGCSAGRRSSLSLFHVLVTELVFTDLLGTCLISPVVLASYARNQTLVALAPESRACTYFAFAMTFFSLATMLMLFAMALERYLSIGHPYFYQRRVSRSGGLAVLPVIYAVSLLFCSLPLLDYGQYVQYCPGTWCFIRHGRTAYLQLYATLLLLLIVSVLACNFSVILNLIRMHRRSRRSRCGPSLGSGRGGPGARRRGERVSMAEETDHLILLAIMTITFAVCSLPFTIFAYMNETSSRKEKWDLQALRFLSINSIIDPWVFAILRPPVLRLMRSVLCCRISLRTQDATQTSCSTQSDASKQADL

EC50 [µM]	Structure (SMILES)
> 10	O=C(O)CCCCCC[C@H]1C(=O)C[C@@H](O)[C@@H]1c1ccc(C2(O)CCC2)cc1
3.13	Cc1ccc([C@H]2[C@H](O)CC(=O)[C@@H]2CCCCCCC(=O)O)cc1
0.102	CC(C)(C)c1ccc([C@H]2[C@H](O)CC(=O)[C@@H]2CCCCCCC(=O)O)cc1
0.818	O=C(O)CCCCCC[C@@H]1[C@@H](c2ccc3c(c2)CCC3)[C@H](O)C[C@H]1Cl
0.936	COC(=O)CCCCCC[C@H]1C(=O)C[C@@H](O)[C@@H]1c1ccc(C(C)(C)C)cc1
> 10	COC(=O)CCCCCC[C@@H]1[C@@H](c2ccc(C3(O)CCC3)cc2)[C@H](O)C[C@H]1Cl

biological target: T2, hIP (Homo sapiens, UniProt P43119); experiment: FLIPR calcium signal, hIP; assay type: cell-based; settings: FLIPR Ca2+ signal, HEK-293(EBNA); read-out: FUNCTIONAL EC50 HIP
T2 construct: expressed in transfected cells; host or cells: HEK-293(EBNA)
T2 sequence (P43119 whole entry): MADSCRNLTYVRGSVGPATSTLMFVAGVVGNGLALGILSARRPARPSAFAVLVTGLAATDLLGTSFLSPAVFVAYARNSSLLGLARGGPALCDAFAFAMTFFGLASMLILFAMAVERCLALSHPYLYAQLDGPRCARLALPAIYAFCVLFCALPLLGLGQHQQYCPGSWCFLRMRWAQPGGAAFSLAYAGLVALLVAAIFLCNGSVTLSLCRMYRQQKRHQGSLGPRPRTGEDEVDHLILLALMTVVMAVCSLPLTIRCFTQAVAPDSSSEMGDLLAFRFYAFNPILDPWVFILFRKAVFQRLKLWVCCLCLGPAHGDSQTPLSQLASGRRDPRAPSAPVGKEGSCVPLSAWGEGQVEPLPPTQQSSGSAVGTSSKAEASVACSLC
Method: (§2) HEK-293(EBNA) cells, stably expressing one type or subtype of recombinant human prostaglandin receptors (prostaglandin receptors expressed: hDP/Gqs5; hEP1; hEP2/Gqs5; hEP3A/Gqi5; hEP4/Gqs5; hFP; hIP; hTP), were cultured in 100 mm culture dishes in high-glucose DMEM medium containing 10% fetal bovine serum, 2 mM 1-glutamine, 250 μg/ml geneticin (G418) and 200 μg/ml hygromycin B as selection markers, and 100 units/ml penicillin G, 100 μg/ml streptomycin and 0.25 μg/ml amphotericin B. • (b) Calcium Signal Studies on the FLIPR™
(§3) Cells were seeded at a density of 5×10^4 cells per well in Biocoat® Poly-D-lysine-coated black-wall, clear-bottom 96-well plates (Becton-Dickinson) and allowed to attach overnight in an incubator at 37° C. Cells were then washed two times with HBSS-HEPES buffer (Hanks Balanced Salt Solution without bicarbonate and phenol red, 20 mM HEPES, pH 7.4) using a Denley Cellwash plate washer (Labsystems). After 45 minutes of dye-loading in the dark, using the calcium-sensitive dye Fluo-4 AM at a final concentration of 2 μM, plates were washed four times with HBSS-HEPES buffer to remove excess dye leaving 100 μl in each well. Plates were re-equilibrated to 37° C. for a few minutes.
(§4) Cells were excited with an Argon laser at 488 nm, and emission was measured through a 510-570 nm bandwidth emission filter (FLIPR™, Molecular Devices, Sunnyvale, Calif.). Drug solution was added in a 50 μl volume to each well to give the desired final concentration. The peak increase in fluorescence intensity was recorded for each well. On each plate, four wells each served as negative (HBSS-HEPES buffer) and positive controls (standard agonists: BW245C (hDP); PGE2 (hEP1; hEP2/Gqs5; hEP3A/Gqi5; hEP4/Gqs5); PGF2α (hFP); carbacyclin (hIP); U-46619 (hTP), depending on receptor). The peak fluorescence change in each drug-containing well was then expressed relative to the controls.
(§5) Compounds were tested in a high-throughput (HTS) or concentration-response (CoRe) format. In the HTS format, forty-four compounds per plate were examined in duplicates at a concentration of 10^−5 M. To generate concentration-response curves, four compounds per plate were tested in duplicates in a concentration range between 10^−5 and 10^−11 M. The duplicate values were averaged. In either, HTS or CoRe format each compound was tested on at least 3 separate plates using cells from different passages to give an n≧3.

EC50 [µM]	Structure (SMILES)
> 10	O=C(O)CCCCCC[C@H]1C(=O)C[C@@H](O)[C@@H]1c1ccc(C2(O)CCC2)cc1
> 10	CC(C)(C)c1ccc([C@H]2[C@H](O)CC(=O)[C@@H]2CCCCCCC(=O)O)cc1

biological target: T3, hTP (Homo sapiens, UniProt P21731); experiment: FLIPR calcium signal, hTP; assay type: cell-based; settings: FLIPR Ca2+ signal, HEK-293(EBNA); read-out: FUNCTIONAL EC50 HTP
T3 construct: expressed in transfected cells; host or cells: HEK-293(EBNA)
T3 sequence (P21731 1-343): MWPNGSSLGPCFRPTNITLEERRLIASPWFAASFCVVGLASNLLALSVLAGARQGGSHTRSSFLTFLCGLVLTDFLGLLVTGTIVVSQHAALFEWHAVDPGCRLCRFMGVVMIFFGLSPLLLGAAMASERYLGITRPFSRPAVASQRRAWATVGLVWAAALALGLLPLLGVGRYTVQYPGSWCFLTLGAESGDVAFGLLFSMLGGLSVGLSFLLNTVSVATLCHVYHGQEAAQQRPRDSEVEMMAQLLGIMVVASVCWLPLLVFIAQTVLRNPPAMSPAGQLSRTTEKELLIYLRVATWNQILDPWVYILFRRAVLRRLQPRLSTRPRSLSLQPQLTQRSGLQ
Method: as §2, §3, §4, §5

EC50 [µM]	Structure (SMILES)
0.506	COC(=O)CCCCCC[C@@H]1[C@@H](c2ccc3c(c2)CCC3)[C@H](O)C[C@H]1Cl
0.094	Cc1ccc([C@H]2[C@H](O)CC(=O)[C@@H]2CCCCCCC(=O)O)cc1
4.27	CC(C)(C)c1ccc([C@H]2[C@H](O)CC(=O)[C@@H]2CCCCCCC(=O)O)cc1
17.5	COC(=O)CCCCCC[C@@H]1[C@@H](c2ccc3c(c2)CCC3O)[C@H](O)C[C@H]1Cl (stereo partly drawn)
0.2	O=C(O)CCCCCC[C@@H]1[C@@H](c2ccc3c(c2)CCC3)[C@H](O)C[C@H]1Cl
> 10	COC(=O)CCCCCC[C@H]1C(=O)C[C@@H](O)[C@@H]1c1ccc(C(C)(C)C)cc1
> 10	COC(=O)CCCCCC[C@@H]1[C@@H](c2ccc(C3(O)CCC3)cc2)[C@H](O)C[C@H]1Cl

biological target: T4, hEP3A/Gqi5 (Homo sapiens, UniProt P43115); experiment: FLIPR calcium signal, hEP3A; assay type: cell-based; settings: FLIPR Ca2+ signal, HEK-293(EBNA); read-out: FUNCTIONAL EC50 HEP3A
T4 construct: expressed in transfected cells; host or cells: HEK-293(EBNA)
T4 sequence (P43115 1-390): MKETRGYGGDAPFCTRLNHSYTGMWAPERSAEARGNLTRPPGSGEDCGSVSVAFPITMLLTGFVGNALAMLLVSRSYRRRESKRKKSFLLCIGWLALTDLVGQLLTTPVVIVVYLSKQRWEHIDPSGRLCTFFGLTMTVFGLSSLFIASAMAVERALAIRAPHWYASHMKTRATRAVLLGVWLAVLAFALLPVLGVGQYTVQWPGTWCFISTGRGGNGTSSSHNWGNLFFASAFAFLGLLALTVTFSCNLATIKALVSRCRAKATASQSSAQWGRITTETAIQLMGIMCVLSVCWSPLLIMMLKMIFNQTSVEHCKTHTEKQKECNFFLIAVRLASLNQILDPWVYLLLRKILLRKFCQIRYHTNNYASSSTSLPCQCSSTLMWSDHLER
Method: as §2, §3, §4, §5

EC50 [µM]	Structure (SMILES)
3.39	CC(C)(C)c1ccc([C@H]2[C@H](O)CC(=O)[C@@H]2CCCCCCC(=O)O)cc1
> 10	COC(=O)CCCCCC[C@H]1C(=O)C[C@@H](O)[C@@H]1c1ccc(C(C)(C)C)cc1

biological target: T5, human EP2 receptors (Homo sapiens, UniProt P43116); experiment: Competition radioligand binding ([3H]PGE2), EP2; settings: read-out: BINDING IC50 HEP2
T5 construct: expressed in transfected cells; host or cells: HEK 293
T5 sequence (P43116 whole entry): as the sequence (P43116 whole entry) above

IC50 [µM]	Structure (SMILES)
6.25	O=C(O)CCCCCC[C@@H]1[C@@H](c2ccc3c(c2)CCC3)[C@H](O)C[C@H]1Cl

biological target: T6, hEP4/Gqs5 (Homo sapiens, UniProt P35408); experiment: FLIPR calcium signal, hEP4; assay type: cell-based; settings: FLIPR Ca2+ signal, HEK-293(EBNA); read-out: FUNCTIONAL EC50 HEP4
T6 construct: expressed in transfected cells; host or cells: HEK-293(EBNA)
T6 sequence (P35408 whole entry): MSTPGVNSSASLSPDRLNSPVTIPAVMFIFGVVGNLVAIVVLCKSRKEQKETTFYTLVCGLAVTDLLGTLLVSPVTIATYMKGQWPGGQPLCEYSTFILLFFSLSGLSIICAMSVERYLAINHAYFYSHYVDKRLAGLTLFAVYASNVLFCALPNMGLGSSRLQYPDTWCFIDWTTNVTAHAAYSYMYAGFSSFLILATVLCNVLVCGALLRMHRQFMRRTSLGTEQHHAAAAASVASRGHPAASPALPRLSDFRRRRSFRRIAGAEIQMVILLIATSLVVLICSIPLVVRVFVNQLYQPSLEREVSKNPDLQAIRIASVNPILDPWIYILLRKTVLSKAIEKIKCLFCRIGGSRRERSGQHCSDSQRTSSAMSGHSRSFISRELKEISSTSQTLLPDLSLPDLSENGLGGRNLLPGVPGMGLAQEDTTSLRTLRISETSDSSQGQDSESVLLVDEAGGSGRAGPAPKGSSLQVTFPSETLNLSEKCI
How it was run: as §1

EC50 [µM]	Structure (SMILES)
22.5	COC(=O)CCCCCC[C@@H]1[C@@H](c2ccc3c(c2)CCC3O)[C@H](O)C[C@H]1Cl (stereo partly drawn)
> 10	COC(=O)CCCCCC[C@H]1C(=O)C[C@@H](O)[C@@H]1c1ccc(C(C)(C)C)cc1

biological target: T7, EP4 receptors (Homo sapiens, UniProt P35408); experiment: Radioligand binding ([3H]PGE2), EP4; settings: read-out: BINDING IC50 HEP4
T7 construct: expressed in transfected cells; host or cells: HEK-293
T7 sequence (P35408 whole entry): as above
Method: HEK-293 cells stably expressing the human or feline FP receptor, or EP1, EP2, or EP4 receptors were washed with TME buffer, scraped from the bottom of the flasks, and homogenized for 30 sec using a Brinkman PT 10/35 polytron. TME buffer was added to achieve a final 40 ml volume in the centrifuge tubes (the composition of TME is 100 mM TRIS base, 20 mM MgCl2, […]; 10N HCl is added to achieve a pH of 7.4).
The cell homogenate was centrifuged at 19000 r.p.m. for 20 min at 4° C. using a Beckman Ti-60 rotor. The resultant pellet was resuspended in TME buffer to give a final 1 mg/ml protein concentration, as determined by Biorad assay. Radioligand binding competition assays vs. [^3H-]17 —phenyl PGF2α (5 nM) were performed in a 100 μl volume for 60 min. Binding reactions were started by adding plasma membrane fraction. The reaction was terminated by the addition of 4 ml ice-cold TRIS-HCl buffer and rapid filtration through glass fiber GF/B filters using a Brandel cell harvester. The filters were washed 3 times with ice-cold buffer and oven dried for one hour.
[^3H-] PGE2 (specific activity 180 Ci mmol) was used as the radioligand for EP receptors. [^3H] 17-phenyl PGF2α was employed for FP receptor binding studies. Binding studies employing EP1, EP2, EP4 and FP receptors were performed in duplicate in at least three separate experiments. A 200 μl assay volume was used. Incubations were for 60 min at 25° C. and were terminated by the addition of 4 ml of ice-cold 50 mM TRIS-HCl, followed by rapid filtration through Whatman GF/B filters and three additional 4 ml washes in a cell harvester (Brandel). Competition studies were performed using a final concentration of 5 nM [^3H]—PGE2, or 5 nM [^3H] 17-phenyl PGF2α and non-specific binding determined with 10^−5M of unlabeled PGE2, or 17-phenyl PGF2α, according to receptor subtype studied.

IC50 [µM]	Structure (SMILES)
13.1	COC(=O)CCCCCC[C@@H]1[C@@H](c2ccc3c(c2)CCC3)[C@H](O)C[C@H]1Cl

biological target: T8, hEP1 (Homo sapiens, UniProt P34995); experiment: FLIPR calcium signal, hEP1; assay type: cell-based; settings: FLIPR Ca2+ signal, HEK-293(EBNA); read-out: FUNCTIONAL EC50 HEP1
T8 construct: expressed in transfected cells; host or cells: HEK-293(EBNA)
T8 sequence (P34995 1-402): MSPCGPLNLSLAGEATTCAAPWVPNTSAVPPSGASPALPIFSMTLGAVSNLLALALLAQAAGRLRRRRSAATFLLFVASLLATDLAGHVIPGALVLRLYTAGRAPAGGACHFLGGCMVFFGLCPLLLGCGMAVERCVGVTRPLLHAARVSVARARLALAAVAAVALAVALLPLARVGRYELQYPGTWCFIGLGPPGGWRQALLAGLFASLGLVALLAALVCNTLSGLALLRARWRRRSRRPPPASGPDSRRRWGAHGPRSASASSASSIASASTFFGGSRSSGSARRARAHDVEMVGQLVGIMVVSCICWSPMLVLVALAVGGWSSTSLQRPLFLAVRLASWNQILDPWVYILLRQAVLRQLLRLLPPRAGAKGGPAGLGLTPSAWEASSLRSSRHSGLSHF
Method: as §2, §3, §4, §5

EC50 [µM]	Structure (SMILES)
1.87	Cc1ccc([C@H]2[C@H](O)CC(=O)[C@@H]2CCCCCCC(=O)O)cc1
> 10	CC(C)(C)c1ccc([C@H]2[C@H](O)CC(=O)[C@@H]2CCCCCCC(=O)O)cc1
0.221	O=C(O)CCCCCC[C@@H]1[C@@H](c2ccc3c(c2)CCC3)[C@H](O)C[C@H]1Cl
